Assay results reported in patent US20100022402A1, “Methods and Compositions for the In Vitro High-Throughput Detection of Protein/Protein Interactions” (priority 2004, published 2010).
Like-named read-outs stand apart in the source and are kept apart here.

What was measured:
[1] = tested on: λD-Acid:λD-Base association; experiment: Titration of λD-Acid:λD-Base phage association by free competitors (loss of double resistant multilysogen formation); format: binding; details: for concentration found to inhibit the λD-Acid:λD-Base interaction: free amino acid; for cross-inhibition of λD-Acid:λD-Base: non-partner free proteins; for IC50, inhibition of Acid/Base association: MOI of 0.0025, aptamer 0.001 μM to 5 μM, FIG. 6; for Kd: free synthetic peptide competing with aptamer interaction, read-out: apparent KD (concentration of free peptide that results in an IC50)
Method: Lambda display phages are used to co-infect cells at an MOI of 0.0025. In the presence of increasing concentrations of the Acidic (triangles) or Basic (square) Aptamer (0.001 μM to 5 μM), titration of Acid/Base association is scored by the loss of double resistant multilysogen formation. The point representing the maximum number of lysogens for this given MOI.
(§1) Display phages are assayed for their ability to associate with other phages bearing a potential binding partner, with a non-binding partner and with a non-display D vector phage (i.e. λA2 and λA3). The production of double antibiotic resistant (Cml^r/Kan^r) multilysogen E. coli LE392 is used to mark positive fusion D display protein-protein interaction. First, the phages are combined to yield a chosen MOI (a typical initial range is 0.002-0.04), and allowed to associate for 5 minutes at room temperature (RT) prior to dilution with 220 uL of Salted Association Buffer (SAB; 20 mM Tris.HCLpH7.4, 10 mM CaCl2, 10 mM MgCl2 and 100 mM NaCl). After 10 minutes at room temperature, 1×10^8 of fresh log-phase E. coli LE392 recovered in [LB+0.4% maltose+10 mM CaCl2] is added. Phage-phage association, co-infection and antibiotic gene expression are allowed to proceed for 45 min-1 h at RT, followed by plating on agar supplemented with 10^ug/mL Cml+30^ug/mL Kan. Plates are incubated overnight at 32° C. for lysogen formation.

[2] = tested on: λD-CUE:λD-Ubiquitin association; experiment: Titration of λD-CUE:λD-Ubiquitin phage association by free proteins (loss of double resistant multilysogen formation); format: binding; details: for titration of λD-CUE:λD-Ubiquitin by non-partner peptides: acidic or basic aptamers
Method: Lambda display phages are used to co-infect cells at an MOI of 0.04. In the presence of increasing concentrations of the wtUbiquitin (diamonds), wt CUE (squares) or mutant CUEM419D (triangles) protein is added to the phage pair, and positive λD-CUE:λD-Ubiquitin association is scored by the loss of double resistant multilysogen formation. The results are tabulated as the number of colonies counted, with the point representing the maximum number of lysogens for this given MOI.
as §1

E. coli LE392 cells = experiment: Protein association assay: lysogen formation after infection with vector or display phages; format: cell-based; details: single input phage, MOI 0.1
Method: as §1

monoubiquitin = monoubiquitin (Homo sapiens, UniProt P0CG47); details: cited from earlier work
CUE = biological target: T1, CUE (Saccharomyces cerevisiae, UniProt P54787); details: CUE binds itself via an alpha helix interface; read-out: Kd (dimerization); cited from earlier work
T1 construct: The CUE domain (50 amino acid residues), as characterized by the conserved MFP and LL motifs
T1 sequence (P54787 408-451 limits assumed): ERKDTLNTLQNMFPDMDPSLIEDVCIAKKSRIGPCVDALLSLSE

N=C(N)NCCC[C@H](N)C(=O)O [Arginine]
concentration found to inhibit the λD-Acid:λD-Base interaction [1]: 4.6 mM

N[C@@H](CCC(=O)O)C(=O)O [Glutamic acid]
concentration found to inhibit the λD-Acid:λD-Base interaction [1]: 0.679 mM

CUEM419D: non-binding mutant CUE protein (KKIEENERKDTLNTLQNDFPDMDPSLIEDVCIAKKSRIGPCVDALLSLSE)
cross-inhibition of λD-Acid:λD-Base [1]: no cross-inhibition
titration point of λD-CUE:λD-Ubiquitin association ([2]; MOI of 0.04, FIG. 7): no titration point
ability to challenge the λD-CUE:λD-Ubiquitin interaction ([2]; even at a concentration of 1 mM): unable to challenge

GEGEGEGE [Acidic Aptamer, [Gly-Glu]4]
IC50, inhibition of Acid/Base association [1]: ~0.01 µM
Kd [1]: 0.01 µM
titration of λD-CUE:λD-Ubiquitin by non-partner peptides [2]: nor is λD-CUE:λD-Ubiquitin titrated

GRGRGRGR [Basic Aptamer, [Gly-Arg]4]
IC50, inhibition of Acid/Base association [1]: ~0.01 µM
Kd [1]: 0.01 µM
titration of λD-CUE:λD-Ubiquitin by non-partner peptides [2]: nor is λD-CUE:λD-Ubiquitin titrated

Ubiquitin
Number of Cml^r/Kan^r Cells (E. coli LE392 cells): 0
Number of Kan^r Cells (E. coli LE392 cells): 3 × 10^6

wt CUE: free wild type CUE domain (50 amino acids) of Vsp9p (KKIEENERKDTLNTLQNMFPDMDPSLIEDVCIAKKSRIGPCVDALLSLSE)
Kd (monoubiquitin; CUE as a dimer (dimericCue:Ubiquitin), read-out: apparent KD, CUE binding Ubiquitin): 1.2 µM
Kd (monoubiquitin; CUE as a monomer, read-out: KD, CUE binding monoubiquitin): 20 µM
cross-inhibition of λD-Acid:λD-Base [1]: no cross-inhibition
Kd (CUE): 1000 µM
Kd ([2]; free protein, read-out: apparent KD, competition of λD-Cue:λD-Ubiquitin pair): 0.002 µM
